Test results: patent US6114349A, “Substituted quinoline derivatives with antiviral action” (Hoechst Aktiengesellschaft, priority 1996, dated 2000)
Converted amounts (≈) assume the structure as drawn. Each block holds one molecule with its values, some of them ahead of it.

Key:
[1] = test system: HIV; assay: Testing of preparations against HIV in cell culture (giant cell formation in HIV-infected lymphocytes); assay type: cell-based; settings: 3 days, 37° C.; for MIC: Human immunodeficiency virus 1, 72 h, lowest concentration at which no giant cells occurred; for EC50: Human immunodeficiency virus 1, Lymphocyte, 72 h
Procedure: Testing of Preparations Against HIV Cell Culture
Complete medium additionally contains 20% fetal calf serum and 40 IU/ml of recombinant interleukin 2.
Lymphocytes isolated from fresh donor blood by means of Ficoll^R gradient centrifugation are cultured at 37° C. under 5% CO2 for 36 h in complete medium with addition of […] of phytohemagglutinin (Wellcome). After addition of 10% DMSO, the cells are frozen at a cell density of 5×10^6 and stored in liquid nitrogen. For the experiment, the cells are thawed, washed in RPMI medium and cultured in complete medium for 3-4 days.
The test preparations were dissolved in DMSO in a concentration of 16.7 mg/ml and diluted to 1 mg/ml in complete medium. 0.4 ml of medium was initially introduced into 24-well multiwell dishes. After addition of 0.1 ml of the dissolved preparation in the top row of the dish, a geometrical dilution series was produced by transfer of 0.1 ml in each case. Preparation-free controls always contained 0.4 ml of complete medium containing 0.5% DMSO. Lymphocyte cultures having a cell count of 5×10^5 cells/ml were infected by addition of 1/50 volumes of supernatant from HIV-infected lymphocyte cultures. The titer of these culture supernatants was determined by endpoint dilution with 1-5×10^6 infectious units/ml. After incubation at 37° C. for 30 min, the infected lymphocytes were removed by centrifugation and taken up again in the same volume of medium. 0.6 ml of this cell suspension in each case was added to all hollows of the test plate. The batches were incubated at 37° C. for 3 days.
The infected cell cultures were investigated under the microscope for the presence of giant cells, which indicate active virus replication in the culture. The lowest preparation concentration at which no giant cells occurred was determined as the inhibitory concentration against HIV. For the control, the supematants from the culture plates were determined for the presence of HIV antigen using an HIV antigen test according to the instructions of the manufacturer (Organon).

[2] = molecular target: T1, HIV "Reverse Transcriptase" (Human immunodeficiency virus type 1 group M subtype B, UniProt P04585); assay: Inhibition of HIV reverse transcriptase, Scintillation Proximity Assay (SPA); assay type: biochemical; settings: RT-SPA, 60 min, 37° C.; read-out: Reverse Transcriptase Assay IC-50 (converted)
T1 construct: purchased HT Biotechnology LTD, Cambridge, UK; host or cells: E. coli
Procedure: Investigation of the Substances for Inhibition of HIV "Reverse Transcriptase"
The activity of the reverse transcriptase (RT) was determined using a "Scintillation Proximity Assay" (SPA).
The reagent kit for the RT-SPA was obtained from Amersham/Buchler (Brunswick). The enzyme RT (from HIV cloned in E. coli) came from HT Biotechnology LTD, Cambridge, UK.
The test was carried out according to the method manual of the manufacturer Amersham--with the following modifications:
Bovine serum albumin was added to the assay buffer to a final concentration of 0.5 mg/ml.
The test was carried out in Eppendorf reaction vessels with a […] batch volume.
The RT concentrate of the manufacturer (5000 U/ml) was diluted to an activity of 15 U/ml in tris HCl buffer 20 mM; pH 7.2; 30% glycerol.
The incubation time for the batches was 60 min (37° C.).
After stopping the reaction and "development" with the bead suspension, 130 μl batches were transferred to 4.5 ml of tris HCl buffer, 10 mM; pH 7.4; 0.15 M NaCl and the tritium activity was measured in a β-counter.
For a preliminary test of the inhibitor activity, the substances were dissolved in DMSO (stock solution c=1 mg/ml) and tested in dilution in DMSO 10^-1, 10^-2, 10^-3 etc.
For the determination of IC50 values, the inhibitor stock solutions were further diluted in tris HCl buffer, 50 mM, pH 8 and tested in suitable concentrations.
From the graphic representation of RT activity versus Log Clnh., the concentration associated with a 50% enzyme inhibition was determined.

[3] = Hirsch, M. S. J. Infect. Dis. 157 (1988), 427-431; cited from earlier work

SMILES: CCc1c(C(=O)OC(C)C)c2ccccc2[nH]c1=S [Compound 5]
MIC [1]: 0.2 mg/L (≈ 0.726 µM)
EC50 [1]: 0.005 mg/L (≈ 0.0182 µM)
IC50 [2]: 0.035 µM

SMILES: CC(C)OC(=O)c1c(-c2ccccc2)c(=S)[nH]c2ccc(Cl)cc12 [Compound 6]
IC50 [2]: 0.022 µM

SMILES: CC(C)OC(=O)c1c(-c2ccccc2)c(=S)[nH]c2ccc(F)cc12 [Compound 15]
MIC [1]: > 0.04 mg/L
EC50 [1]: ~0.02 mg/L (≈ 0.0586 µM)
IC50 [2]: 0.021 µM

SMILES: CC(C)Cc1c(C(=O)OC(C)C)c2ccccc2[nH]c1=O [Compound 16]
MIC [1]: > 0.04 mg/L
EC50 [1]: 0.05 mg/L (≈ 0.174 µM)
IC50 [2]: 0.372 µM

SMILES: CCC(CC)OC(=O)c1c(-c2ccccc2)c(=S)[nH]c2ccc(Cl)cc12 [Compound 18]
MIC [1]: > 0.2 mg/L
EC50 [1]: ~0.08 mg/L (≈ 0.207 µM)
IC50 [2]: 0.029 µM

SMILES: CCc1c(C(=O)OC(C)C)c2cc(Cl)ccc2[nH]c1=O [Compound 19, isopropyl 6-chloro-3-ethylquinolin-2(1H)-one-4-carboxylate]
MIC [1]: ~0.2 mg/L (≈ 0.681 µM)
EC50 [1]: ~0.02 mg/L (≈ 0.0681 µM)
IC50 [2]: 0.094 µM

SMILES: CCc1c(C(=O)OC(C)C)c2cc(Cl)ccc2[nH]c1=S [Compound 20, isopropyl 6-chloro-3-ethylquinoline-2(1H)-thione-4-carboxylate]
MIC [1]: > 0.008 mg/L
EC50 [1]: ~0.002 mg/L (≈ 0.00646 µM)
IC50 [2]: 0.008 µM

SMILES: CCc1c(C(=O)OC2CCCC2)c2ccccc2[nH]c1=S [Compound 30]
MIC [1]: ~0.2 mg/L (≈ 0.664 µM)
EC50 [1]: ~0.04 mg/L (≈ 0.133 µM)
IC50 [2]: 0.147 µM

SMILES: CC(C)OC(=O)c1c(C(C)C)c(=O)[nH]c2ccccc12 [Compound 34]
MIC [1]: > 0.2 mg/L
EC50 [1]: ~0.1 mg/L (≈ 0.366 µM)
IC50 [2]: 1.52 µM

SMILES: CC(C)OC(=O)c1c(C(C)C)c(=S)[nH]c2ccccc12 [Compound 35]
MIC [1]: > 0.04 mg/L
EC50 [1]: > 0.008 mg/L
IC50 [2]: 0.529 µM

MIC [1]: > 0.2 mg/L
EC50 [1]: 0.03 mg/L (≈ 0.112 µM)
SMILES: COC(=O)c1c(C)c(=S)[nH]c2ccc(Cl)cc12 [Compound 39]

SMILES: Cc1c(C(=O)OC(C)C)c2cc(Cl)ccc2[nH]c1=O [Compound 40]
MIC [1]: > 0.04 mg/L
EC50 [1]: 0.015 mg/L (≈ 0.0536 µM)
IC50 [2]: 0.608 µM

MIC [1]: > 0.04 mg/L
EC50 [1]: < 0.001 mg/L
SMILES: Cc1c(C(=O)OC(C)C)c2cc(Cl)ccc2[nH]c1=S [Compound 41]

MIC [1]: > 0.2 mg/L
EC50 [1]: ~0.1 mg/L (≈ 0.343 µM)
SMILES: Cc1c(C(=O)OCC2CC2)c2cc(Cl)ccc2[nH]c1=O [Compound 42]

SMILES: Cc1c(C(=O)OCC2CC2)c2cc(Cl)ccc2[nH]c1=S [Compound 43]
IC50 [2]: 0.026 µM

SMILES: CCCOC(=O)c1c(C)c(=S)[nH]c2ccc(Cl)cc12 [Compound 45]
MIC [1]: < 0.2 mg/L
EC50 [1]: ~0.04 mg/L (≈ 0.135 µM)
IC50 [2]: 0.034 µM

SMILES: CC(C)OC(=O)c1c(-c2ccccc2Cl)c(=S)[nH]c2ccccc12 [Compound 61]
MIC [1]: ~0.08 mg/L (≈ 0.224 µM)
IC50 [2]: 0.026 µM

SMILES: CCOC(=O)c1c(CC)c(=S)[nH]c2ccc(Cl)cc12 [Compound 67]
IC50 [2]: 0.001 µM

SMILES: CCc1c(C(=O)OC2CCCCC2)c2cc(Cl)ccc2[nH]c1=S [Compound 70]
MIC [1]: ~0.4 mg/L (≈ 1.14 µM)
EC50 [1]: < 0.08 mg/L
IC50 [2]: 0.008 µM

SMILES: C=CCOC(=O)c1c(CC)c(=S)[nH]c2ccc(Cl)cc12 [Compound 71]
MIC [1]: ~0.4 mg/L (≈ 1.3 µM)
EC50 [1]: < 0.08 mg/L
IC50 [2]: 0.001 µM

SMILES: Nc1ccn([C@H]2CC[C@@H](CO)O2)c(=O)n1 [DDC]
therapeutic breadth / toxicity [3]: very narrow therapeutic breadth or by very severe toxicity which occurs even in the therapeutic range

SMILES: O=c1[nH]cnc2c1ncn2[C@H]1CC[C@@H](CO)O1 [DDI]
therapeutic breadth / toxicity [3]: very narrow therapeutic breadth or by very severe toxicity which occurs even in the therapeutic range
